Data on seven compounds can be found in patent US4188398A, “Method for treating epilepsy” (priority 1978, dated 1980).

Some results are limits rather than exact numbers.

Series [1] can be described thus: Acute toxicity, single intraperitoneal administration, 48 hours (Litchfield and Wilcockson). The format is in vivo, white mice. The settings on record: intraperitoneal, white mice, P=0.05; for LD50: 2880 min; for LD50 at 48 h: mouse, in vivo, ip. The method, then:
The acute toxicity of the proposed preparation was tested on white mice weighing 19 to 20 g, by single intraperitoneal administrations of 1.5- and 10-percent colloidal solutions of the anticonvulsant in a 0.5-percent solution of carboxymethyl cellulose. The animals were observed during 48 hours. In order to establish the median lethal dose (LD50), the experimental data was statistically processed using the Litchfield and Wilcockson techniques. Milontin and zarontin were analyzed in the same way.

Series [2] in a line: Neurotoxicity: rightening, gait, stance, muscle tone and equilibrium tests. The format is in vivo. The settings on record: P = 0.05; for TD50: in vivo, read-out: TD50 (mean neurotoxic dose). The method, then:
The neurotoxicity levels were determined by conducting rightening, gait, stance, muscle tone and equilibrium tests.

Series [3] can be described thus: Duration of urethane-induced sleep. The format is in vivo. To be noted: milontin 100 mg/kg; for Average Duration of Urethane-Induced Sleep: P = 0.05, urethane 1,000 mg/kg, proposed preparation 100 mg/kg, zarontin 150 mg/kg. The source says:
(§1) Nembutal was used as a trunk narcotic, and urethane as a cortical narcotic.

The nature of series [4]: Duration of Nembutal-induced sleep. The format is in vivo. To be noted: for Average Duration of Nembutal-Induced Sleep: P = 0.05, Nembutal 40 mg/kg, proposed preparation 100 mg/kg, zarontin 150 mg/kg, milontin 100 mg/kg.
Text: as §1

A short description of another series: Camphor convulsions test. To be noted: for ED50: Mus musculus, read-out: ED50 (camphor).
Series [5] is described as follows: Maximum electroshock test.
Description: (§2) The anticonvulsant action of the proposed preparation was tested on mice weighing 19 to 25 g and rats weighing 120 to 150 g by conducting maximum electroshock, corazol, strychnine, camphor, nicotine and arecoline tests.
The nature of the next series: animal or person. The method, then:
The general effect of the proposed preparation was tested on white mice, rats and rabbits.

Series [6] is described as follows: Clinical comparison in petit mal epilepsy. Format: in vivo, human (patients).

Description for Camphor convulsions test: as §2
Description for Corazol convulsion test: as §2

In general, TD50 refers to the 50% point of the dose-response relation for the toxic effect studied. In general, ED50 refers to the dose at which the effect has come halfway, by size or by number of responders. With `CN1C(=O)CC(c2ccccc2)C1=O` (stereo not drawn) [Milontin, N-methyl-α-phenylsuccinimide], in series [1], the LD50 is given as 950 (792 to 1,140) mg/kg and the LD50 at 48 h was 950 mg/kg. For the same compound, in series [2], the “TD50 (mean neurotoxic dose)” value is 340(278 to 416) mg/kg and the TD50 stood at 340 mg/kg. Besides, in [3], the “Average Duration of Urethane-Induced Sleep” value came to 16.5 ± 4.6 min and the “prolongation of duration of urethane-induced sleep” value is listed as “more than 3 times”. The “Average Duration of Nembutal-Induced Sleep” value in [4] was found to be 139.2 ± 33.2 min. For the same compound, the “prolongation of the hypnotic action of Nembutal” value in [4] (in words) is given as “statistically significant prolongation”. The “antistrychnine effect, ranking of the three drugs” value (in words) is given as “at its lowest”. Further, under “strychnine”, the “ED50 (strychnine)” value was 230 mg/kg; the “protection index I=TD50/ED50, Strychnine” value amounted to 1.47; the “protection index PI (mean lethal dose / mean effective dose), Strychnine” value amounted to 4.14. The median effective dose (ED50) in “Corazol convulsion test” (Mus musculus, read-out: ED50 (corazol)) was found to be 87 mg/kg. For the same compound, in “Corazol convulsion test” (corazol), the “protection index I=TD50/ED50, Corazol” value worked out at 3.91 and the “protection index PI (mean lethal dose / mean effective dose), Corazol” value is 10.9. In “Camphor convulsions test”, the ED50 stood at 99 mg/kg. In the series “Camphor convulsions test” (camphor), the “protection index I=TD50/ED50, Camphor” value is recorded as 3.44 and the “protection index PI (mean lethal dose / mean effective dose), Camphor” value is reported as 9.6. For the same compound, the ED50 in series [5] (Mus musculus, read-out: ED50 (Electroshock)) was 64 mg/kg. Further, in series [5] (electroshock), the “protection index I=TD50/ED50, Electroshock” value worked out at 5.3 and the “protection index PI (mean lethal dose / mean effective dose), Electroshock” value is 14.85. For the same compound, the “anticonvulsant activity in maximum electroshock test” value in [5] (in words) was “anticonvulsant activity was only exhibited by the proposed preparation and milontin”.

As for `CCCC(C)C1(CC)C(=O)NC(=O)NC1=O` (stereo not shown) [Nembutal], the “Average Duration of Nembutal-Induced Sleep” value in [4] came out at 40.8 ± 23.04 min.

For `CCOC(N)=O` [Urethane], the “Average Duration of Urethane-Induced Sleep” value in series [3] was 3.3 ± 1.4 min.

In the case of `CCC1(C)CC(=O)NC1=O` (stereo not drawn) [Zarontin, α-methyl, ethylsuccinimide], the dose inducing sleep in “animal or person” (intraperitoneal) is reported as at least 900 mg/kg. Further, the “dose causing tremors of the hind extremities” value in “animal or person” (mouse, in vivo, ip) is recorded as 700 mg/kg. In [1], the LD50 is on record as 1,325 (1,200 to 1,462) mg/kg and the LD50 at 48 h was 1320 mg/kg. Also, in [2], the “TD50 (mean neurotoxic dose)” value is reported as 590(513 to 678) mg/kg and the TD50 was 590 mg/kg. Besides, in series [3], the “Average Duration of Urethane-Induced Sleep” value worked out at 4.7 ± 2.1 min. Further, in series [4], the “Average Duration of Nembutal-Induced Sleep” value turned out to be 76.9 ± 28.9 min. The “ED50 (strychnine)” value (strychnine) was 152 mg/kg. Besides, the ED50 in the series “Camphor convulsions test” came to 131 mg/kg.

Regarding `CC1(c2ccccc2)CC(=O)N(CN2CCOCC2)C1=O` (stereo not shown) [morpholep], the patients with improvement in [6] is given as 12 out of 14.

As to `CCC1(C)CC(=O)NC1=O` (stereo not shown) [pyknolepsin], in series [6], the patients with improvement is reported as 12 out of 14.

In the case of `CCC1(C)CC(=O)NC1=O` (stereo not shown) [suxilep], the patients with improvement in series [6] was 10 out of 12.
